{"source": "patent EP0415731B1", "about": "“Novel entities for cancer therapy” (THE WELLCOME FOUNDATION LIMITED, priority 1989, dated 1991)", "key": {"Hep G2 cells [1]": {"tested_on": "Hep G2 cells", "assay": "ara ATP formation from (3H) labelled ara-M in infected Hep G2 cells", "format": "cell-based, human", "details": "Hep G2 cells infected with pCR78 containing viruses, incubated with (3H) labelled compound; Figure 6", "method": "(§1) The replication-defective, full length, artificial retroviruses containing the AFP/VZV TK chimaera were used to infect a human hepatoma cell line called Hep G2 (ATCC KS 8065). Following infection and selection on 1mg geneticin/ml (Trade mark), the cells were assayed for VZV TK activity. In addition, the cells were incubated in the presence of (^3H) labeled 9-(B-D-arabinofuranosyl)-6-methoxy-9H purine (designated as ara-M in the following tables and figures) with subsequent measurement of ara ATP. Finally, cells were cultured in the presence of the above mentioned compound and the IC50 - (growth inhibition) was determined. Cells infected with no virus or N2 virus act as control samples for these experiments. N2 virus contain no VZV TK genetic material.\n9-(B-D-arabinofuranosyl)-6-methoxy-9H purine (designated as ara-m) can be selectively monophosphorylated by VZV TK with subsequent anabolism to cytotoxic ara ATP."}, "Hep G2 cells [2]": {"tested_on": "Hep G2 cells", "assay": "Growth inhibition of Hep G2 cells (cell number and DNA content, 5 days)", "format": "cell-based", "details": "Homo sapiens, read-out: IC50 (50% growth inhibition)", "method": "as §1\nHep G2 cells infected with the replication-defective, full length, artificial retroviruses containing the AFP/VZV TK (pCR78) chimaera were incubated in the presence of varying amounts of 9-(B-D-arabinofuranosyl)-6-methoxy-9H purine for 5 days and growth inhibition determined as measured by cell number and DNA content."}}, "note": "Like-named read-outs stand apart in the source and are kept apart here."}
{"smiles": "COc1ncnc2c1ncn2[C@@H]1O[C@H](CO)[C@@H](O)[C@@H]1O", "note": "[9-(β-D-arabinofuranosyl)-6-methoxy-9H-purine]", "values": [{"measurement": "(3H) araATP formation", "setting": "Hep G2 cells [1]", "result": "significant amounts"}, {"measurement": "IC50", "setting": "Hep G2 cells [2]; HepG2, 120 h, Hep G2 cells infected with AFP/VZV TK (pCR78) retrovirus, 5 days", "result": 175, "unit": "µM"}, {"measurement": "IC50", "setting": "Hep G2 cells [2]; HepG2, 120 h, Hep G2 cells infected with N2 virus (no VZV TK), 5 days", "result": "> 2000", "unit": "µM"}, {"measurement": "IC50", "setting": "Hep G2 cells [2]; HepG2, 120 h, control Hep G2 cells, no virus, 5 days", "result": "> 2000", "unit": "µM"}, {"measurement": "IC50", "setting": "Hep G2 cells [2]; HepG2, single cell clones of Hep G2 cells containing the AFP/VZV TK (pCR78) chimaera", "result": "~40", "unit": "µM"}]}
